One assay concerns mutant P23H opsin. As to the kind of experiment: Recovery of correctly folded P23H rhodopsin from tetracycline-inducible HEK293 cells (immunoaffinity purification, absorbance at 500 nm). The format is cell-based. Conditions: for recovery of folded rhodopsins: in the presence of 11-cis-retinal, statement covers the rhodopsins of Table 1 (P23H and WT). The protocol: (§1) Mutant P23H and wild-type opsins were expressed separately in tetracycline-inducible stable HEK293 cell lines in the presence of 11-cis retinal and various inhibitors. At forty-eight hours, the folded proteins were immununoaffinity purified and quantitated by UV-visible spectroscopy. The total amount of opsin protein was assayed at 280 nm. The amount of rhodopsin present in a biochemically functional conformation was assayed at 500 nm. Immunofluorescence microscopy was also performed to determine the cellular location of the proteins.
(§2) Stable wild-type and P23H opsin expressing HEK293 cell lines were generated in the Flp-In T-Rex system (Invitrogen). The BEK293 cells were grown in DMEM high glucose media supplemented with 10% fetal bovine serum, antibiotic-antimycotic solution, 5 μg/ml blasticidin and hygromycin at 37° C. in the presence of 8% CO2.
(§3) The opsin expressing HEK293 cell lines were allowed to reach confluence and were induced with 1 μg/ml tetracycline after a change of media. 10 μM 11-cis retinal was immediately added after induction under a red light, and inhibitors were added concurrently at the concentrations shown in Table 2 (below).
The plates were incubated for forty-eight hours. 10 uM of retinal was provided twenty-four hours after the first application, under red light.
Forty-eight hours after induction and inhibitor administration the HEK293 cells were harvested and rhodopsin was purified essentially as described in Noorwez et. al. (J Biol. Chem. 2004 Apr. 16; 279(16):16278-84). Spectrophotometric scans were taken in a Varian Cary 50 spectrophotometer.

A further assay concerns wild-type opsin. As to the kind of experiment: Recovery of wild-type rhodopsin from tetracycline-inducible HEK293 cells (immunoaffinity purification, absorbance at 500 nm). The format is cell-based. The conditions noted are these: 11-cis-retinal alone added to media of cells expressing wild-type opsin. How it is done:
as §1, §2, §3
The plates were incubated for forty-eight hours. 10 uM of retinal was provided twenty-four hours after the first application, under red light. […]

The next assay deals with P23H opsin. Conditions: previous studies, Noorwez et al. J Biol Chem 2003; cited from earlier work.

Where a SMILES comes first, the peptide text is derived from it. The star is where a group is joined. Cbz = O=C(OCc1ccccc1)*

For the compound `CC1=C(/C=C/C(C)=C/C=C/C(C)=C/C=O)C(C)(C)CCC1` [11-cis-retinal], in the assay on mutant P23H opsin (11-cis-retinal alone added to culture medium of cells expressing the P23H mutant), the “increase in rhodopsin yield” value is 5-6 fold. Besides, the “effect on rhodopsin yield” value in the assay with wild-type opsin was “no effect”. Also, the “in vivo folding and stabilization of P23H opsin” value in the assay on P23H opsin is “promotes the in vivo folding and stabilization”. Take `CC1=C(/C=C/C(C)=C\C=C\C(C)=C\C=O)C(C)(C)CCC1` [9-cis-1-retinal]: the “in vivo folding and stabilization of P23H opsin” value with P23H opsin is “promotes the in vivo folding and stabilization”. In the case of `Cn1cnc(N)c2ncnc1-2` [3-methyladenine], the “recovery of folded rhodopsins” value in the assay with mutant P23H opsin is “increased the recovery”. Regarding 7-ring locked isomer of 11-cis-retinal, the “in vivo folding and stabilization of P23H opsin” value with P23H opsin is “promotes the in vivo folding and stabilization”.

`C[C@H]1CCC/C=C/[C@@H]2C[C@H](O)C[C@H]2[C@H](O)/C=C/C(=O)O1` [Brefeldin A]: the “increase in the yield of P23H rhodopsin” value in the assay with mutant P23H opsin (HEK293 cells, inhibitor added at induction with 11-cis-retinal, FIG. 4A) was found to be 2 fold. For the same compound, in the assay with mutant P23H opsin, the “recovery of folded rhodopsins” value is on record as “increased the recovery”. Regarding `CC(C)C[C@@H](C=O)NC(=O)[C@H](CC(C)C)NC(=O)[C@H](CC(C)C)NC(=O)OCc1ccccc1` [MG132, N-carbobenzoyl-Leu-Leu-Leu-CHO] (Cbz-Leu-Leu-Leu-aldehyde), the “recovery of folded rhodopsins” value with mutant P23H opsin was “increased the recovery”. On the same count and under the same terms, under `O[C@H]1[C@H](O)[C@@H](O)CN2CC[C@H](O)[C@H]12` [Castanospermine] stands “increased the recovery”; under `Cl.N` [Ammonium chloride], “increased the recovery”.

These data come from patent publication US20100004156A1, “Small Compounds That Correct Protein Misfolding and Uses Thereof” (priority 2005, published 2010).
